Results: US4762850A, “Dopamine-beta-hydroxylase inhibitors” (SmithKline Beckman Corporation, priority 1987, dated 1988)
Where a name gives a salt, the structure may show the parent alone. Values belong to the molecule of their own block, whether it stands above or below them.

Key:
[1] = biological target: T1, dopamine-β-hydroxylase (DBH) (Bos taurus, UniProt P15101); assay: in vitro DBH inhibition: conversion of tyramine to octopamine (standard procedure of Pisano et al.); type: biochemical; conditions: absorbance at 330 nm, read-out: DBH IC50 (molar concentration of compound at which DBH activity was halved)
T1 sequence (P15101 1-610): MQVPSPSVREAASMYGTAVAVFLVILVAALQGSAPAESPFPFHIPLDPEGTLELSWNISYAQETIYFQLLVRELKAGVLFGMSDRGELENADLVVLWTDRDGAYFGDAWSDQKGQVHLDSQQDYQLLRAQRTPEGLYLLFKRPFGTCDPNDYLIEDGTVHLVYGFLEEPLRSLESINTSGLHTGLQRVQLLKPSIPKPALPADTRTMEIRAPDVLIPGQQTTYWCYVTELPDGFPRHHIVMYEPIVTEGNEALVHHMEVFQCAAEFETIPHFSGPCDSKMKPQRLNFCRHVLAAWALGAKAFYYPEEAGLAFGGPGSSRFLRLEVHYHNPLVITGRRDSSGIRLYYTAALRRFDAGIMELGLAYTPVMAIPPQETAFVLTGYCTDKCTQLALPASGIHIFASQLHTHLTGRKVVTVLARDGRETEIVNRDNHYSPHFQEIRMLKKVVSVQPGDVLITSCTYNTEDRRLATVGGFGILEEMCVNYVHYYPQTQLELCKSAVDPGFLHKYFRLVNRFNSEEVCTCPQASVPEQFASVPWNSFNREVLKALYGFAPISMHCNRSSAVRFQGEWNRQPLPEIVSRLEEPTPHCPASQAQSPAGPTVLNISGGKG
Description: Listed in Table I are the compounds of the invention that were tested for in vitro DBH inhibition by a standard procedure for assaying conversion of tyramine to octopamine in the presence of DBH. J. J. Pisano, et al., Biochim. Biophys. Acta, 43, 566-568 (1960). Octopamine was assayed following sodium periodate oxidation to p-hydroxybenzaldehyde by measuring spectrophotometric absorbance at 330 nm. In Table I, inhibition is given in molar concentration of compound at which DBH activity was halved (IC50).

[2] = biological target: T1, dopamine-β-hydroxylase (DBH); conditions: cited from earlier work; for DBH inhibition (in words): literature reports
[3] = Ehrreich et al.; cited from earlier work
[4] = Teresawa et al. and references cited therein; cited from earlier work
[5] = mean arterial blood pressure in spontaneously hypertensive rats; type: in vivo; conditions: 50 mg/kg intraperitoneally
Description: Further, spontaneously hypertensive rats were treated with a suspension or solution of N-(2-aminoethyl)-1-(3,5-difluorobenzyl)-2-mercaptoimidazole-5-carboxamide,formate at a dose of 50 mg/kg intraperitoneally, and mean arterial blood pressure was monitored for 260 minutes using indwelling cannulae in the tail arteries.

IC50 [1]: 100 µM
SMILES: O=C(O)c1cnc(S)n1Cc1cc(F)cc(F)c1 [1-(3,5-Difluorobenzyl)-2-mercaptoimidazole-5-carboxylic acid]

SMILES: O=C(O)c1ccc(CCC(Br)CBr)cn1 (stereo not drawn) [5-(3,4-dibromobutyl)picolinic acid]
DBH inhibition (in words) [2]: DBH inhibitors

SMILES: O=C(O)c1ccc(CCCCCl)cn1 [5-(4-chlorobutyl) picolinic acid]
DBH inhibition (in words) [2]: inhibit DBH

SMILES: CN(C)C(=S)SCc1ccc(C(=O)O)nc1 [5-(dimethyldithiocarbamoylmethyl)picolinic acid]
DBH inhibition (in words) [2]: DBH inhibitors

SMILES: NOCc1ccccc1 [Benzyloxyamine, benzyloxyamine]
mode of DBH inhibition [2]: competitive inhibitors

SMILES: CCCCc1ccc(C(N)=O)nc1 [Bupicomide, 5-(n-butyl)picolinamine]
DBH inhibition (in words) [2]: DBH inhibitor
antihypertensive activity [3]: has antihypertensive activity

SMILES: CCCCc1ccc(C(=O)O)nc1 [Fusaric acid]
toxicity [4]: hepatotoxic

IC50 [1]: 0.34 µM
SMILES: NCCNC(=O)c1cnc(S)n1Cc1cc(F)cc(F)c1 [N-(2-Aminoethyl)-1-(3,5-difluorobenzyl)-2-mercaptoimidazole-5-carboxamide,formate]
mean arterial blood pressure reduction compared to vehicle-treated controls ([5]; spontaneously hypertensive rats): significant blood pressure reductions
blood pressure when monitoring was terminated ([5]; monitored for 260 minutes): blood pressure remained decreased

SMILES: NNCc1ccccc1 [benzylhydrazine]
mode of DBH inhibition [2]: competitive inhibitors
